From PubChem BioAssay AID248 (DTP/NCI, 2004)
“And” between values parts separate entries of the source, which are not always exact repeats. Identical values can stand only once. Inconclusive results and toxic doses are left out. Rule as the data show it: active = T/C of 150% or more; inactive = T/C below 125%.

System: L1210 leukemia ip in BDF1 mice, survival T/C
Test: NCI In Vivo Anticancer Drug Screen. Data for tumor model L1210 Leukemia (intraperitoneal) in B6D2F1 (BDF1) mice
Details: endpoint: mean survival time, higher = longer survival
Summary of the method: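 Antitumor effect is assessed in tumor-bearing animals. Survival in the compound arm is compared with a vehicle-dosed control arm and expressed as their quotient.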

[1] = dose: 25.0 mg/kg/injection, schedule: Q01DX009 (ip), vehicle: Klucel (hydroxypropylcellulose) (HPC)
[2] = dose: 25.0 mg/kg/injection, schedule: Q04DX003 (ip), vehicle: Klucel (hydroxypropylcellulose) (HPC)
[3] = dose: 50.0 mg/kg/injection, schedule: Q01DX009 (ip), vehicle: Klucel (hydroxypropylcellulose) (HPC)
[4] = dose: 100.0 mg/kg/injection, schedule: Q04DX003 (ip), vehicle: Klucel (hydroxypropylcellulose) (HPC)
[5] = dose: 200.0 mg/kg/injection, schedule: Q04DX003 (ip), vehicle: Klucel (hydroxypropylcellulose) (HPC)
[6] = dose: 400.0 mg/kg/injection, schedule: Q04DX003 (ip), vehicle: Klucel (hydroxypropylcellulose) (HPC)
[7] = dose: 200.0 mg/kg/injection, schedule: Q01DX009 (ip), vehicle: other
[8] = dose: 50.0 mg/kg/injection, schedule: Q01DX009 (ip), vehicle: saline
[9] = dose: 50.0 mg/kg/injection, schedule: Q04DX003 (ip), vehicle: Klucel (hydroxypropylcellulose) (HPC)
[10] = dose: 100.0 mg/kg/injection, schedule: Q01DX009 (ip), vehicle: saline
[11] = dose: 100.0 mg/kg/injection, schedule: Q01DX001 (ip), vehicle: saline
[12] = dose: 200.0 mg/kg/injection, schedule: Q01DX001 (ip), vehicle: saline
[13] = dose: 100.0 mg/kg/injection, schedule: Q01DX001 (ip), vehicle: Klucel (hydroxypropylcellulose) (HPC)
[14] = dose: 200.0 mg/kg/injection, schedule: Q01DX001 (ip), vehicle: Klucel (hydroxypropylcellulose) (HPC)
[15] = dose: 400.0 mg/kg/injection, schedule: Q01DX001 (ip), vehicle: Klucel (hydroxypropylcellulose) (HPC)
[16] = dose: 200.0 mg/kg/injection, schedule: Q01DX009 (ip), vehicle: saline

Measured: T/C

c1ccc(CC2NCCc3c2[nH]c2ccccc32)cc1 (configuration not stated)
inactive: [1] 104 % of control | [2] 92 % of control | [3] 103 % of control | dose: 100.0 mg/kg/injection, schedule: Q01DX009 (ip), vehicle: Klucel (hydroxypropylcellulose) (HPC) 93 % of control | [4] 89 % of control | dose: 200.0 mg/kg/injection, schedule: Q01DX009 (ip), vehicle: Klucel (hydroxypropylcellulose) (HPC) 108 % of control | [5] 97 % of control | [6] 97 % of control

OCc1ccc(Cl)cc1
inactive: dose: 100.0 mg/kg/injection, schedule: Q01DX009 (ip), vehicle: saline with Tween-80 102 % of control | dose: 200.0 mg/kg/injection, schedule: Q01DX009 (ip), vehicle: saline with Tween-80 98 % of control | dose: 400.0 mg/kg/injection, schedule: Q01DX009 (ip), vehicle: saline with Tween-80 96 % of control

CC1(C)CCC2(C(=O)OC3OC(CO)C(O)C(O)C3O)CCC3(CO)C(=CCC4C5(C)CC(O)C(O)C(C)(C(=O)OC6OC(CO)C(O)C(O)C6O)C5CCC43C)C2C1 (configuration not stated)
inactive: dose: 75.0 mg/kg/injection, schedule: Q01DX001 (sc), vehicle: steriod suspending solution 101 % of control | dose: 300.0 mg/kg/injection, schedule: Q01DX001 (sc), vehicle: steriod suspending solution 107 % of control

O=[N+]([O-])c1cccc2ncsc12
inactive: dose: 100.0 mg/kg/injection, schedule: Q01DX009 (ip), vehicle: other 104 % of control | [7] 107 % of control | dose: 400.0 mg/kg/injection, schedule: Q01DX009 (ip), vehicle: other 104 % of control

CCCCC(=O)N(CCCC)CCCC
inactive: dose: 100.0 mg/kg/injection, schedule: Q04DX002 (ip), vehicle: saline 107 % of control | dose: 200.0 mg/kg/injection, schedule: Q04DX002 (ip), vehicle: saline 114 % of control | dose: 400.0 mg/kg/injection, schedule: Q04DX002 (ip), vehicle: saline 93 % of control

CN(CCCl)Cc1ccccc1
inactive: dose: 8.2 mg/kg/injection, schedule: Q01DX Z (ip), vehicle: methylcellulose (MC) 107 % of control | dose: 18.8 mg/kg/injection, schedule: Q01DX Z (ip), vehicle: methylcellulose (MC) 109 % of control and 112 % of control | [1] 101 % of control | dose: 25.0 mg/kg/injection, schedule: Q01DX009 (ip), vehicle: saline 107 % of control | dose: 28.0 mg/kg/injection, schedule: Q01DX Z (ip), vehicle: methylcellulose (MC) 114 % of control and 121 % of control | [3] 112 % of control | [8] 103 % of control | [9] 101 % of control | dose: 63.0 mg/kg/injection, schedule: Q01DX Z (ip), vehicle: methylcellulose (MC) 87 % of control | [10] 97 % of control | [4] 108 % of control

CCCCCCCCCCNC(=S)NNC(=O)CCCC(=O)NNC(=S)NCCCCCCCCCC
inactive: dose: 50.0 mg/kg/injection, schedule: Q01DX001 (ip), vehicle: saline 96 % of control | [11] 96 % of control | [12] 90 % of control | dose: 400.0 mg/kg/injection, schedule: Q01DX001 (ip), vehicle: saline 96 % of control

O=c1[nH]cc(Nc2ccccc2)c(=O)[nH]1
inactive: [4] 95 % of control | [5] 92 % of control | [6] 88 % of control

CN(c1ccccc1)c1cc(N)nc(N)n1
inactive: dose: 6.0 mg/kg/injection, schedule: Q01DX Z (ip), vehicle: methylcellulose (MC) 92 % of control

O=CN/N=C\c1cccc2ccccc12
inactive: dose: 75.0 mg/kg/injection, schedule: Q01DX001 (ip), vehicle: saline 103 % of control | dose: 150.0 mg/kg/injection, schedule: Q01DX001 (ip), vehicle: saline 98 % of control | dose: 300.0 mg/kg/injection, schedule: Q01DX001 (ip), vehicle: saline 97 % of control

O=C1C2(Cl)C(Cl)=C(Cl)C1(Cl)C1(Cl)C(Cl)=C(Cl)C(=O)C21Cl (configuration not stated)
inactive: [13] 102 % of control | [14] 102 % of control | [15] 97 % of control

CC(C)CC(N)C(=O)NCCCl (configuration not stated)
inactive: dose: 30.0 mg/kg/injection, schedule: Q01DX Z (ip), vehicle: saline 88 % of control | dose: 100.0 mg/kg/injection, schedule: Q01DX Z (ip), vehicle: saline 102 % of control | dose: 300.0 mg/kg/injection, schedule: Q01DX Z (ip), vehicle: saline 88 % of control

CC(CN1c2ccccc2Sc2ccccc21)[N+](C)(C)C (configuration not stated)
inactive: [11] 88 % of control

C/C=C/C=N/NC(=O)c1ccc[n+](C)c1
inactive: [8] 112 % of control | [10] 104 % of control | [16] 112 % of control

O=C(CC(=O)c1ccccc1)Nc1ccc([N+](=O)[O-])cn1
inactive: [9] 91 % of control | [13] 103 % of control | [14] 105 % of control | [5] 93 % of control | [15] 98 % of control

CC(=O)CC(=O)NCCCc1ccccc1
inactive: dose: 100.0 mg/kg/injection, schedule: Q01DX009 (sc), vehicle: olive oil, sesame oil, peanut oil 101 % of control | dose: 100.0 mg/kg/injection, schedule: Q04DX003 (ip), vehicle: saline with Tween-80 97 % of control | dose: 200.0 mg/kg/injection, schedule: Q01DX009 (sc), vehicle: olive oil, sesame oil, peanut oil 103 % of control | dose: 200.0 mg/kg/injection, schedule: Q04DX003 (ip), vehicle: saline with Tween-80 103 % of control | dose: 400.0 mg/kg/injection, schedule: Q01DX009 (sc), vehicle: olive oil, sesame oil, peanut oil 106 % of control | dose: 400.0 mg/kg/injection, schedule: Q04DX003 (ip), vehicle: saline with Tween-80 97 % of control

CSc1ncnc2c1ncn2NC(C)=O
inactive: dose: 88.0 mg/kg/injection, schedule: Q01DX009 (ip), vehicle: other 107 % of control | dose: 100.0 mg/kg/injection, schedule: Q01DX001 (ip), vehicle: other 98 % of control | dose: 134.0 mg/kg/injection, schedule: Q01DX009 (ip), vehicle: other 104 % of control | dose: 200.0 mg/kg/injection, schedule: Q01DX001 (ip), vehicle: other 104 % of control | [7] 113 % of control | dose: 300.0 mg/kg/injection, schedule: Q01DX009 (ip), vehicle: other 120 % of control | dose: 400.0 mg/kg/injection, schedule: Q01DX001 (ip), vehicle: other 112 % of control

CCOC(=O)C1(C(=O)OCC)CCC1
inactive: [11] 103 % of control | [12] 94 % of control

CCN(CC)CCNC(=O)c1c2nc3c(C(=O)NCCN(CC)CC)ccc(C)c3oc-2c(C)c(=O)c1N
inactive: dose: 25.0 mg/kg/injection, schedule: Q04DX002 (ip), vehicle: Klucel (hydroxypropylcellulose) (HPC) 101 % of control | dose: 50.0 mg/kg/injection, schedule: Q04DX002 (ip), vehicle: Klucel (hydroxypropylcellulose) (HPC) 97 % of control | dose: 75.0 mg/kg/injection, schedule: Q01DX001 (ip), vehicle: carboxymethylcellulose (CMC) 105 % of control | dose: 100.0 mg/kg/injection, schedule: Q04DX002 (ip), vehicle: Klucel (hydroxypropylcellulose) (HPC) 94 % of control

NC(=O)C(O)C(Br)(Br)Br (configuration not stated)
inactive: [10] 94 % of control | dose: 100.0 mg/kg/injection, schedule: Q04DX003 (ip), vehicle: saline 97 % of control | [16] 95 % of control | dose: 200.0 mg/kg/injection, schedule: Q04DX003 (ip), vehicle: saline 93 % of control | dose: 400.0 mg/kg/injection, schedule: Q01DX009 (ip), vehicle: saline 90 % of control | dose: 400.0 mg/kg/injection, schedule: Q04DX003 (ip), vehicle: saline 97 % of control

CC(C)(C)C(O)C1CCCS1(=O)=O (configuration not stated)
inactive: dose: 50.0 mg/kg/injection, schedule: Q01DX001 (ip), vehicle: Klucel (hydroxypropylcellulose) (HPC) 96 % of control

CC(C)(C#N)c1ccnc2ccccc12
inactive: dose: 12.5 mg/kg/injection, schedule: Q01DX009 (ip), vehicle: Klucel (hydroxypropylcellulose) (HPC) 89 % of control | [1] 100 % of control | [2] 104 % of control | [9] 96 % of control | [4] 96 % of control
